Experiments:
[1] = In vitro inhibition of human platelet aggregation induced by alpha-thrombin (at a concentration of 0.15 nM)
[2] = biological target: T1, Proteinase-activated receptor 1 (Homo sapiens, UniProt P25116); test: In vitro inhibition of human platelet aggregation induced by SFLLRN-NH2 (at a concentration of 2 uM)
T1 sequence (P25116 whole entry): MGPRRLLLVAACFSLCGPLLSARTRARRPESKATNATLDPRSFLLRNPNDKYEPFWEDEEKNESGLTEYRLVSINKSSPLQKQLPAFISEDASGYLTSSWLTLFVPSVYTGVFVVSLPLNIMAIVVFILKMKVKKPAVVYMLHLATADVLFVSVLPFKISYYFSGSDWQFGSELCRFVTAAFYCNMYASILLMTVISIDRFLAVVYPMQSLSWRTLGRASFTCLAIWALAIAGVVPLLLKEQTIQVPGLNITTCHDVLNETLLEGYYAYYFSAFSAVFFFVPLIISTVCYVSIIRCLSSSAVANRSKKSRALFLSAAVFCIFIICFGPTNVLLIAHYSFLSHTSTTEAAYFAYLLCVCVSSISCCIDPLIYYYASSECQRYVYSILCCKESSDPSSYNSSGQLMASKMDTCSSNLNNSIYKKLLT

[3] = biological target: T1, Proteinase-activated receptor 1; test: In vitro inhibition of human platelet aggregation induced by alpha-thrombin (at a concentration of 0.15 nM)
[4] = In vitro inhibition of human platelet aggregation induced by SFLLRN-NH2 (at a concentration of 2 uM)

IC50 [1] [nM]	IC50 [2] [nM]	IC50 [4] [nM]	Structure (SMILES)	IC50 [3] [nM]
	130		NC(N)=NCCCC(NC(=O)C(Cc1ccc([N+](=O)[O-])cc1)NC(=O)Nc1ccc2c(CN3CCCC3)cn(Cc3ccc(F)cc3)c2c1)C(=O)NCc1ccccc1 [(S)-2-[(S)-2-{3-[1-(4-Fluoro-benzyl)-3-pyrrolidin-1-ylmethyl-1H-indol-6-yl]-ureido}-3-(4-nitro-phenyl)-propionylamino]-5-guanidino-pentanoic acid benzylamide]	6100
3000		230	CCN(CC)Cc1cn(Cc2ccccc2C)c2cc(NC(=O)N[C@@H](Cc3ccc(OC)cc3)C(=O)N[C@@H](CCCNC(=N)N)C(=O)NCCCc3ccccc3)ccc12 [(S)-2-[(S)-2-{3-[3-Diethylaminomethyl-1-(2-methyl-benzyl)-1H-indol-6-yl]-ureido}-3-(4-methoxy-phenyl)-propionylamino]-5-guanidino-pentanoic acid (3-phenyl-propyl)-amide]	
	150		Cc1ccccc1Cn1cc(CN2CCCC2)c2ccc(NC(=O)NC(Cc3ccc([N+](=O)[O-])cc3)C(=O)NC(CCCNC(=N)N)C(=O)NCc3ccccc3)cc21 [(S)-5-Guanidino-2-[(S)-2-{3-[1-(2-methyl-benzyl)-3-pyrrolidin-1-ylmethyl-1H-indol-6-yl]-ureido}-3-(4-nitro-phenyl)-propionylamino]-pentanoic acid benzylamide]	
700		100	NCCCC[C@H](NC(=O)[C@H](Cc1ccc(F)c(F)c1)NC(=O)Nc1ccc2c(CN3CCCC3)cn(Cc3c(Cl)cccc3Cl)c2c1)C(=O)NCc1ccccc1 [(S)-6-Amino-2-[(S)-2-{3-[1-(2,6-dichloro-benzyl)-3-pyrrolidin-1-ylmethyl-1H-indol-6-yl]-ureido}-3-(3,4-difluoro-phenyl)-propionylamino]-hexanoic acid benzylamide]	
460		200	O=C(Nc1ccc2c(CN3CCCC3)cn(Cc3c(Cl)cccc3Cl)c2c1)N[C@@H](Cc1ccc(F)c(F)c1)C(=O)NC(Cc1cnc[nH]1)C(=O)NCc1ccccc1 (stereo partly drawn) [(S)-N-[1-Benzylcarbamoyl-2-(3H-imidazol-4-yl)-ethyl]-2-{3-[1-(2,6-dichloro-benzyl)-3-pyrrolidin-1-ylmethyl-1H-indol-6-yl]-ureido}-3-(3,4-difluoro-phenyl)-propionamide]	
			COc1ccc(C[C@H](NC(=O)Nc2ccc3c(CN4CCCC4)cn(Cc4c(Cl)cccc4Cl)c3c2)C(=O)N[C@@H](CCCN=C(N)N)C(=O)NCc2ccccc2)cc1 [RWJ-54003]	900

Structure (SMILES)	IC50 [1] [nM]	IC50 [2] [nM]	IC50 [4] [nM]	IC50 [3] [nM]
N=C(N)NCCC[C@H](NC(=O)[C@H](Cc1ccc(F)c(F)c1)NC(=O)Nc1ccc2c(CN3CCCC3)cn(Cc3c(Cl)cccc3Cl)c2c1)C(=O)NCc1ccccc1 [(S)-2-[(S)-2-{3-[1-(2,6-Dichloro-benzyl)-3-pyrrolidin-1-ylmethyl-1H-indol-6-yl]-ureido}-3-(3,4-difluoro-phenyl)-propionylamino]-5-guanidino-pentanoic acid benzylamide]	570			
